From ChEMBL document CHEMBL4196001, “Design, semisynthesis, α-glucosidase inhibitory, cytotoxic, and antibacterial activities of p-terphenyl derivatives” (Eur J Med Chem, 2018) come the findings set out here.

One data set concerns the target Alpha glucosidase (Homo sapiens, UniProt O43451+P10253+P14410+Q2M2H8). The data set is described as follows: Inhibition of human alpha-glucosidase expressed in Saccharomyces cerevisiae using p-nitrophenyl-alpha-D-glucopyranoside as substrate after 15 mins.
Data set [1] in a line: Cytotoxicity against human Chang cells by SRB assay. It is filed as cell-based.
For data set [2], the system named is A549. The data set is described as follows: Cytotoxicity against human A549 cells at 10 uM by SRB assay. The format is functional, cell-based.
For data set [3], the system named is HeLa. Put plainly: Cytotoxicity against human HeLa cells at 10 uM by SRB assay. The format is functional, cell-based.
The subject of data set [4] is HepG2. Put plainly: Cytotoxicity against human HepG2 cells at 10 uM by SRB assay. The format is functional, cell-based. On the technique in general: The SRB assay estimates cell density from bound dye.
The subject of the next data set is Staphylococcus aureus. The data set is described as follows: Antibacterial activity against Staphylococcus aureus after 24 hrs by broth macrodilution method. It is filed as functional.
Another data set has as its system alpha-glucosidase. The data set is described as follows: Therapeutic index, ratio of CC50 for human Chang cells to IC50 for human alpha-glucosidase expressed in Saccharomyces cerevisiae. The note with it: read-out: Ratio CC50/IC50. It is filed as toxicity.
The subject of data set [5] is A549. Put plainly: Cytotoxicity against human A549 cells by SRB assay. It is filed as functional, cell-based.
The test system of data set [6] is HeLa. The data set is described as follows: Cytotoxicity against human HeLa cells by SRB assay. It is filed as functional, cell-based.
The test system of data set [7] is HepG2. The data set is described as follows: Cytotoxicity against human HepG2 cells by SRB assay. The format is functional, cell-based.
Data set [8] is described as follows: Cytotoxicity against human Chang cells at 10 uM by SRB assay. The format is cell-based.
For data set [9], the system named is HeLa. The data set is described as follows: Cytotoxicity against human HeLa cells after 3 days by hematoxylin-eosin staining-based assay. The note with it: 72 h, read-out: ID50 (the source's name). The format is functional.

Converted amounts (≈) assume the structure as drawn. The source made the active and inactive calls. The calls are words filed in the database; no cut-off is given here.

A word on the CC50: it is the concentration that lowers cell viability or growth by half. A high value points to lower toxicity to the cells. As a reminder, the MIC is the least concentration at which growth counts as inhibited. A low value points to greater potency. Compound `COc1cc(-c2ccc(O)cc2)c(OC)c(OCCBr)c1-c1ccc(O)cc1` showed an IC50 against Alpha glucosidase of 18.8 µM. In addition, half-maximal cytotoxicity in [1] (CC50) was put at 39.1 µM. The outcome in the data set with A549 [2], with HeLa [3] and in the data set with HepG2 [4] was inactive. The MIC with Staphylococcus aureus was found to be 6.25 µM (≈ 2.78 µg/mL).
Take `COc1cc(-c2ccc(O)cc2)c(O)c(O)c1-c1ccc(O)cc1`: the IC50 at Alpha glucosidase was determined as 13.2 µM. Also, the selectivity ratio in the data set with alpha-glucosidase came out at 17. The half-maximal cytotoxic concentration (CC50) in [1] was 224 µM. Besides, the result with A549 [2], in the data set on HeLa [3] and in the data set on HepG2 [4] was inactive.
On to `COc1cc(-c2ccc(OCc3ccccc3)cc2)c(OC)c(O)c1-c1ccc(O)cc1`, for which the IC50 against Alpha glucosidase amounted to 12.5 µM. This compound returned a CC50 in data set [1] of 39.1 µM. Further, the outcome in the data set with A549 [2], in the data set with HeLa [3] and in the data set on HepG2 [4] was inactive. The compound further yielded an MIC in the data set with Staphylococcus aureus of 6.25 µM (≈ 2.68 µg/mL).
On to `C=CCOc1ccc(-c2c(OC)cc(-c3ccc(O)cc3)c(OC)c2O)cc1`, for which the IC50 against Alpha glucosidase was found to be 32.2 µM; in the data set on A549 [5], 0.17 µM; with HeLa [6] it was 1.02 µM; with HepG2 [7], 0.95 µM. For the same compound, it took 0.57 µM to reach half-maximal cytotoxicity in data set [1] (CC50). Besides, it took 6.25 µM (≈ 2.37 µg/mL) to inhibit growth against Staphylococcus aureus (MIC).
Turning to `COc1c(Br)c(-c2ccc(O)cc2)c(OC)c(O)c1-c1ccc(O)cc1`, the IC50 on Alpha glucosidase came to 7.14 µM. Moreover, the result in the data set with A549 [2], in the data set on HeLa [3] and in the data set on HepG2 [4] was inactive. The Activity result in data set [8] was “Non-Toxic”. Moreover, in the data set with Staphylococcus aureus, the lowest concentration to inhibit growth (MIC) was 1.56 µM (≈ 0.651 µg/mL).
Take `CCCOc1c(OC)c(-c2ccc(O)cc2)cc(OC)c1-c1ccc(O)cc1`: on Alpha glucosidase, the IC50 was found to be 19.3 µM. This compound registered a cytotoxic concentration (CC50) in data set [1] of 14.5 µM. Besides, the outcome in the data set on A549 [2], in the data set with HeLa [3] and in the data set on HepG2 [4] was inactive. The compound also displayed an MIC against Staphylococcus aureus of 6.25 µM (≈ 2.38 µg/mL).
For `COc1cc(-c2ccc(O)cc2)c(OC)c(O)c1-c1ccc(OCc2ccccc2)cc1`, the IC50 against Alpha glucosidase was 12.5 µM. For the same compound, the CC50 in [1] is 23.1 µM. The result in the data set with A549 [2], in the data set with HeLa [3] and in the data set on HepG2 [4] was inactive. Moreover, the MIC in the data set on Staphylococcus aureus is 6.25 µM (≈ 2.68 µg/mL).
The compound `COc1cc(-c2ccc(O)cc2)c(OC)c(OCc2ccccc2)c1-c1ccc(O)cc1` showed an IC50 against Alpha glucosidase of 19.1 µM. In data set [1], the CC50 amounted to 17.1 µM. In addition, the outcome with A549 [2], with HeLa [3] and in the data set with HepG2 [4] was inactive. The compound also yielded an MIC against Staphylococcus aureus of 6.25 µM (≈ 2.68 µg/mL).
Turning to `COc1cc(-c2ccccc2)c(OC)c(O)c1-c1ccc(O)cc1`, the IC50 amounted to 108.2 µM against Alpha glucosidase and 32 µg/mL (≈ 99.3 µM) in the data set with HeLa [9]. Further, the result with A549 [2], in the data set with HeLa [3] and in the data set on HepG2 [4] was inactive. For the same compound, in [8], the Activity entry is reported as “Non-Toxic”.
In the case of `CCCOc1ccc(-c2cc(OC)c(-c3ccc(O)cc3)c(O)c2OC)cc1`, on Alpha glucosidase, the IC50 was 10 µM. In the data set with alpha-glucosidase, the selectivity ratio was 10. In data set [1], this compound returned a CC50 of 98.5 µM. Moreover, the result in the data set with A549 [2], in the data set with HeLa [3] and with HepG2 [4] was inactive.
Regarding `COc1cc(-c2ccc(O)cc2)c(OC)c(OCC=C(C)C)c1-c1ccc(O)cc1`, at Alpha glucosidase, the IC50 turned out to be 23.4 µM. In data set [1], this compound gave a 50% cytotoxic concentration (CC50) of 15.9 µM. The result with A549 [2], in the data set on HeLa [3] and with HepG2 [4] was inactive. The compound also registered a minimum inhibitory concentration (MIC) in the data set with Staphylococcus aureus of 6.25 µM (≈ 2.54 µg/mL).
As to `COc1cc(-c2ccc(OCC=C(C)C)cc2)c(OC)c(O)c1-c1ccc(O)cc1`, the IC50 against Alpha glucosidase came out at 20.1 µM. For the same compound, the CC50 in data set [1] worked out at 26.2 µM. Also, the result in the data set on A549 [2], in the data set with HeLa [3] and in the data set with HepG2 [4] was inactive. Moreover, the MIC in the data set with Staphylococcus aureus came to 6.25 µM (≈ 2.54 µg/mL).
